Results: patent publication US4122034A, “Antimicrobial compositions” (Schering Corporation, priority 1975, dated 1978)
Values after ≈ are worked out from the molar mass of the structure shown.

Legend:
[1] = tested on: Candida albicans; assay: In vitro Anti-Candida activity, dilutions in Sabouraud's Dextrose Agar (Table III); format: cell-based; details: 48 h
Protocol: (§1) All the tests were carried out and (when necessary) scored under standard conditions. "MIC" means "minimum inhibitory concentration."
In vitro Anti-Candida Activity of 2-aminoalkyl-3-phenyl-
indoles of the formula I. Dilutions in Sabouraud's Dextrose
MIC (mcg/ml) after 48 hours

[2] = tested on: Enterococcus; assay: In vitro antibacterial activity, dilution in Mueller Hinton Agar (Table I); format: cell-based
Protocol: as §1
In vitro Antibacterial Activity of 2-aminoalkyl-3-phenyl-
indoles of the formula I. Dilution in Mueller Hinton Agar pH 7.4

[3] = tested on: T. mentagrophytes; assay: Effect against topical T. mentagrophytes infections in guinea pigs (Table VI); format: in vivo; set-up: Average Sum of lesion scores, Days 1-5 / Average Sum of lesion scores, Days 1-10: scale not given here; details: for Average Sum of lesion scores, Days 1-5: untreated controls 14.8; for Average Sum of lesion scores, Days 1-10: untreated controls 38.2
Protocol: as §1
Effect of some 2-aminoalkyl-3-phenylindoles of the formula II
against topical T. mentagrophytes infections in guinea pigs.

[4] = tested on: Bacteroides melaninogenicus; assay: In vitro activity against anaerobes in fluid Thioglycollate medium (Table II); format: cell-based
Protocol: as §1
(§2) In vitro activity of 2-aminoalkyl-3-phenylindoles of the formula I
(§3) against anaerobes in fluid Thioglycollate medium

[5] = tested on: Clostridium septicum; assay: as above; format: cell-based
Protocol: as §1, §2, §3

[6] = tested on: Bacteroides corrodens; assay: as above; format: cell-based; details: Eikenella corrodens
Protocol: as §1, §2, §3

[7] = tested on: Clostridium novyi; assay: as above; format: cell-based
Protocol: as §1, §2, §3

[8] = tested on: Peptostreptococcus; assay: as above; format: cell-based
Protocol: as §1, §2, §3

[9] = tested on: Clostridium histolyticum; assay: as above; format: cell-based; details: Hathewaya histolytica
Protocol: as §1, §2, §3

[10] = tested on: Eubacterium lentum; assay: as above; format: cell-based; details: Eggerthella lenta
Protocol: as §1, §2, §3

[11] = tested on: Bacteroides fragilis; assay: as above; format: cell-based
Protocol: as §1, §2, §3

[12] = tested on: Trichophyton megninii; assay: In vitro antifungal activity, dilutions in Sabouraud's Dextrose Broth (Table IV); format: cell-based; details: Trichophyton rubrum; after 96 hours
Protocol: as §1
(§4) In vitro Antifungal Activity of 2-amioalkyl-3-phenylindoles
(§5) of the formula I against Dermetophytes and Aspergillus.
(§6) Dilutions in Sabouraud's Dextrose Broth.

[13] = tested on: Trichophyton ferrugineum; assay: as above; format: cell-based; details: Microsporum ferrugineum; after 96 hours
Protocol: as §1, §4, §5, §6

[14] = tested on: Aspergillus niger 6275; assay: as above; format: cell-based; details: after 96 hours
Protocol: as §1, §4, §5, §6

[15] = tested on: Tricoderm sp.; assay: as above; format: cell-based; details: after 96 hours
Protocol: as §1, §4, §5, §6

[16] = tested on: Epidermophyton floccosum; assay: as above; format: cell-based; details: after 96 hours
Protocol: as §1, §4, §5, §6

[17] = tested on: Trichophyton gallinae; assay: as above; format: cell-based; details: after 96 hours
Protocol: as §1, §4, §5, §6

[18] = tested on: Trichophyton ascoides; assay: as above; format: cell-based; details: after 96 hours
Protocol: as §1, §4, §5, §6

[19] = tested on: Trichophyton soudenense; assay: as above; format: cell-based; details: after 96 hours
Protocol: as §1, §4, §5, §6

[20] = tested on: Aspergillus sp. No. 3; assay: as above; format: cell-based; details: after 96 hours
Protocol: as §1, §4, §5, §6

[21] = tested on: Microsporum nanum; assay: as above; format: cell-based; details: Nannizzia nana; after 96 hours
Protocol: as §1, §4, §5, §6

[22] = tested on: Trichophyton discoides; assay: as above; format: cell-based; details: after 96 hours
Protocol: as §1, §4, §5, §6

[23] = tested on: Trichophyton schoenleinii; assay: as above; format: cell-based; details: 96 h
Protocol: as §1, §4, §5, §6

[24] = tested on: Trichophyton tonsurans; assay: as above; format: cell-based; details: after 96 hours
Protocol: as §1, §4, §5, §6

[25] = tested on: Microsporum distortum; assay: as above; format: cell-based; details: after 96 hours
Protocol: as §1, §4, §5, §6

[26] = tested on: Trichophyton mentagrophytes; assay: as above; format: cell-based; details: 96 h
Protocol: as §1, §4, §5, §6

[27] = tested on: Trichophyton rubrum; assay: as above; format: cell-based; details: 96 h
Protocol: as §1, §4, §5, §6

[28] = tested on: Trychomonas vaginalis; assay: In vitro Anti-Trichomonal activity (Table VII); format: cell-based
Protocol: as §1
In vitro Anti-Trichomonal Activity of some 2-aminoalkyl-3-
phenyl-indenes of formula II.

[29] = Acute toxicity in mice (Table V); details: mouse, in vivo
Protocol: as §1
Acute Toxicity of 2-aminoalkyl-3-phenylindoles of the formula I

NCc1[nH]c2ccc(Cl)cc2c1-c1ccc(Cl)cc1Cl [E]
MIC ([1]; strain 1, after 48 hours): 37.5 µg/mL (≈ 115 µM) | MIC ([1]; strain 2, after 48 hours): 37.5 µg/mL (≈ 115 µM) | MIC ([1]; strain 3, after 48 hours): 37.5 µg/mL (≈ 115 µM) | MIC ([1]; strain 4, after 48 hours): 17.5 µg/mL (≈ 53.7 µM) | MIC ([1]; strain 5, after 48 hours): 17.5 µg/mL (≈ 53.7 µM) | MIC ([1]; strain 6, after 48 hours): 37.5 µg/mL (≈ 115 µM) | MIC ([1]; strain 8, after 48 hours): 37.5 µg/mL (≈ 115 µM) | MIC ([1]; strain 9, after 48 hours): 37.5 µg/mL (≈ 115 µM) | MIC ([1]; strain 29, after 48 hours): 37.5 µg/mL (≈ 115 µM) | MIC ([1]; strain Atkisson, after 48 hours): 37.5 µg/mL (≈ 115 µM) | MIC ([1]; strain Bertrand, after 48 hours): 37.5 µg/mL (≈ 115 µM) | MIC ([1]; strain Bevan, after 48 hours): 37.5 µg/mL (≈ 115 µM) | MIC ([1]; strain Blunden, after 48 hours): 37.5 µg/mL (≈ 115 µM) | MIC ([1]; strain Bognay, after 48 hours): 37.5 µg/mL (≈ 115 µM) | MIC ([1]; strain Boyer, after 48 hours): 37.5 µg/mL (≈ 115 µM) | MIC ([1]; strain Burke, after 48 hours): 37.5 µg/mL (≈ 115 µM) | MIC ([1]; strain Burnside, after 48 hours): 37.5 µg/mL (≈ 115 µM) | MIC ([1]; strain Collins, after 48 hours): 37.5 µg/mL (≈ 115 µM) | MIC ([1]; strain Fix, after 48 hours): 37.5 µg/mL (≈ 115 µM) | MIC ([1]; strain Frazier, after 48 hours): 37.5 µg/mL (≈ 115 µM) | MIC ([1]; strain Fulcher, after 48 hours): 37.5 µg/mL (≈ 115 µM) | MIC ([1]; strain Gay, after 48 hours): 37.5 µg/mL (≈ 115 µM) | MIC ([1]; strain Hons, after 48 hours): 37.5 µg/mL (≈ 115 µM) | MIC ([1]; strain Johnson, after 48 hours): 37.5 µg/mL (≈ 115 µM) | MIC ([1]; strain Kenndy 2, after 48 hours): 37.5 µg/mL (≈ 115 µM) | MIC ([1]; strain Kennedy 1, after 48 hours): 37.5 µg/mL (≈ 115 µM) | MIC ([1]; strain Lehtman, after 48 hours): 37.5 µg/mL (≈ 115 µM) | MIC ([1]; strain Lusk, after 48 hours): 37.5 µg/mL (≈ 115 µM) | MIC ([1]; strain Merkel, after 48 hours): 37.5 µg/mL (≈ 115 µM) | MIC ([1]; strain Newcomb, after 48 hours): 17.5 µg/mL (≈ 53.7 µM) | MIC ([1]; strain Sherod, after 48 hours): 37.5 µg/mL (≈ 115 µM) | MIC ([1]; strain Shurelli, after 48 hours): 37.5 µg/mL (≈ 115 µM) | MIC ([1]; strain Sparks, after 48 hours): 37.5 µg/mL (≈ 115 µM) | MIC ([1]; strain Tyner, after 48 hours): 37.5 µg/mL (≈ 115 µM) | MIC ([2]; pH 7.4, strain 373, Mueller Hinton Agar pH 7.4): 3 µg/mL (≈ 9.21 µM) | MIC ([2]; pH 7.4, strain 0928/72, Mueller Hinton Agar pH 7.4): 3 µg/mL (≈ 9.21 µM) | Average No. of Days to become negative, Cultures ([3]; concentration 1%): > 22 days | Average No. of Days to become negative, Lesion ([3]; concentration 1%): > 22 days | Average Sum of lesion scores, Days 1-5 ([3]; concentration 1%): 12.6 | Average Sum of lesion scores, Days 1-10 ([3]; concentration 1%): 34.2 | Average No. of Days to become negative, Cultures ([3]; concentration 4%): 6.6 days | Average No. of Days to become negative, Lesion ([3]; concentration 4%): 9.2 days | Average Sum of lesion scores, Days 1-5 ([3]; concentration 4%): 11.6 | Average Sum of lesion scores, Days 1-10 ([3]; concentration 4%): 15.2 | MIC ([4]; 48 hrs): 3 µg/mL (≈ 9.21 µM) | MIC ([4]; 72 hrs): 3 µg/mL (≈ 9.21 µM) | MIC ([5]; 48 hrs): 0.75 µg/mL (≈ 2.3 µM) | MIC ([5]; 72 hrs): 0.75 µg/mL (≈ 2.3 µM) | MIC ([6]; 48 hrs): 0.75 µg/mL (≈ 2.3 µM) | MIC ([6]; 72 hrs): 3 µg/mL (≈ 9.21 µM) | MIC ([7]; 48 hrs): 0.75 µg/mL (≈ 2.3 µM) | MIC ([7]; 72 hrs): 0.75 µg/mL (≈ 2.3 µM) | MIC ([8]; 48 hrs): 0.75 µg/mL (≈ 2.3 µM) | MIC ([8]; 72 hrs): 0.75 µg/mL (≈ 2.3 µM) | MIC ([9]; 48 hrs): 0.3 µg/mL (≈ 0.921 µM) | MIC ([9]; 72 hrs): 0.3 µg/mL (≈ 0.921 µM) | MIC ([10]; 48 hrs): 3 µg/mL (≈ 9.21 µM) | MIC ([10]; 72 hrs): 3 µg/mL (≈ 9.21 µM) | MIC ([11]; 48 hrs): 0.75 µg/mL (≈ 2.3 µM) | MIC ([11]; 72 hrs): 0.75 µg/mL (≈ 2.3 µM) | MIC [12]: 3 µg/mL (≈ 9.21 µM) | MIC [13]: 7.5 µg/mL (≈ 23 µM) | MIC [14]: 17.5 µg/mL (≈ 53.7 µM) | MIC [15]: 3 µg/mL (≈ 9.21 µM) | MIC [16]: 3 µg/mL (≈ 9.21 µM) | MIC [17]: 17.5 µg/mL (≈ 53.7 µM) | MIC [18]: 7.5 µg/mL (≈ 23 µM) | MIC [19]: 7.5 µg/mL (≈ 23 µM) | MIC [20]: 17.5 µg/mL (≈ 53.7 µM) | MIC [21]: 3 µg/mL (≈ 9.21 µM) | MIC [22]: 7.5 µg/mL (≈ 23 µM) | MIC ([23]; strain 2, after 96 hours): 3 µg/mL (≈ 9.21 µM) | MIC ([23]; strain not given, after 96 hours): 3 µg/mL (≈ 9.21 µM) | MIC [24]: 7.5 µg/mL (≈ 23 µM) | MIC [25]: 3 µg/mL (≈ 9.21 µM) | MIC ([26]; strain A, after 96 hours): 3 µg/mL (≈ 9.21 µM) | MIC ([26]; strain B, after 96 hours): 17.5 µg/mL (≈ 53.7 µM) | MIC ([26]; strain C, after 96 hours): 17.5 µg/mL (≈ 53.7 µM) | MIC ([26]; strain H377, after 96 hours): 7.5 µg/mL (≈ 23 µM) | MIC ([26]; strain Young, after 96 hours): 3 µg/mL (≈ 9.21 µM) | MIC ([27]; strain 3, after 96 hours): 3 µg/mL (≈ 9.21 µM) | MIC ([27]; strain 360, after 96 hours): 3 µg/mL (≈ 9.21 µM) | MIC ([27]; strain Blehl, after 96 hours): 3 µg/mL (≈ 9.21 µM) | MIC ([27]; strain Haggerty, after 96 hours): 3 µg/mL (≈ 9.21 µM) | IC50 ([28]; 50% suppression, read-out: Minimal Level to Produce 50% Suppression): 14 µg/mL (≈ 43 µM) | IC90 ([28]; 90% suppression, read-out: Minimal Level to Produce 90% Suppression): 28 µg/mL (≈ 86 µM) | LD50 ([29]; Oral): ~700 mg/kg | LD50 ([29]; ip, I.P.): 85 mg/kg | LD50 ([29]; sc, S.C.): 540 mg/kg
